Source: patent publication US20250206722A1, “SMALL MOLECULE INHIBITORS OF TEA DOMAIN FAMILY MEMBERS” (The Scripps Research Institute, priority 2022, published 2025)
pIC50: −log10 of the molar value.

Legend:
[1] = test system: NCI-H226 cells; test: NCI-H226 proliferation assay (in house); assay type: cell-based; conditions: Homo sapiens, 120 h, 5 days, Cell TiterGlo, 20-point 1:2 dilution from 20 μM
Description: NCI-H226 Proliferation Assay
NCI-H226 cells were obtained from American Type Culture Collection (ATCC, CRL-5826) and cultured in RPMI 1640 with L-glutamine (Corning, 10-040-CV) supplemented with 10% fetal bovine serum (Gibco, 10438-026) and 1% penicillin-streptomycin (Gibco, 15070063). Cells were trypsinized, resuspended in growth medium, and diluted to a concentrated of 10,000 cells/mL. 500 cells, 50 μL of cell suspension, per well were then plated in a white 384-well plate (Corning) and incubated at 37° C., 5% CO2. After 24 hours incubation, 100 nL of test compounds in DMSO, 20-point 1:2 dilution starting from 20 μM (final concentration) in triplicate, were transferred to each well using an Agilent Bravo instrument outfitted with a pintool head. Cells were incubated at 37° C., 5% CO2 for 5 days followed by the addition of 30 μL of Cell TiterGlo (Promega; diluted 1:6 in water) to each well and luminescence values recorded using an EnVision plate reader. […]

[2] = test system: transcriptional activity of TEADs; test: TEAD reporter assay (MCF7 TEAD-LUC reporter cells); assay type: cell-based; conditions: Homo sapiens, 24 hours, BrightGlo luminescence
Description: MCF7 TEAD-LUC reporter cells were obtained from BPS Bioscience, Inc. and cultured in DMEM medium (Corning, 10-013-CV) supplemented with 10% fetal bovine serum (Gibco, 10438-026), 1% penicillin-streptomycin (Gibco, 15070063), 1% non-essential amino acids (Gibco, 15070063), and 10 μg/mL insulin (Sigma, 10516). Cells were trypsinized, resuspended in growth medium, and diluted to a concentrated of 100,000 cells/mL. 5,000 cells, 50 μL of cell suspension, per well were then plated in a white 384-well plate (Corning) and incubated at 37° C., 5% CO2. After 24 hours incubation, 100 nL of test compounds in DMSO, 20-point 1:2 dilution starting from 20 μM (final concentration) in triplicate, were transferred to each well using an Agilent Bravo instrument outfitted with a pintool head. Cells were incubated at 37° C., 5% CO2 for 24 hours followed by the addition of 30 μL of BrightGlo (Promega; diluted 1:3 in water) to each well and luminescence values recorded using an EnVision plate reader.
The in vitro assay results of the compounds in the present invention were included in Table 1. The compounds described herein, inhibited the transcriptional activity of TEADs, as assessed by decreased luminance from a TEAD reporter cell line (MCF7 TEAD-LUC) in response to compound treatment.

IC50 [1] [µM] | pIC50 [2] | Compound
0.5 | 8.12 | C=CC(=O)N1CCN(c2ncccc2C(=O)c2ccc(C(F)(F)F)nc2)CC1 [Example 141, 1-(4-(3-(6-(trifluoromethyl)nicotinoyl)pyridin-2-yl)piperazin-1-yl)prop-2-en-1-one]
7.28 | 8.64 | C=CC(=O)N1CCN(c2ncccc2C(O)c2ccc(C(F)(F)F)nc2)CC1 (centres unmarked) [Example 142, 1-(4-(3-(hydroxy(6-(trifluoromethyl)pyridin-3-yl)methyl)pyridin-2-yl)piperazin-1-yl)prop-2-en-1-one]
0.031 | 8.09 | C=C(F)C(=O)N1CCN(c2cccnc2Nc2ccc(C(F)(F)F)nc2)CC1 [Example 144, 2-fluoro-1-(4-(2-((6-(trifluoromethyl)pyridin-3-yl)amino)pyridin-3-yl)piperazin-1-yl)prop-2-en-1-one]
0.158 | 7.63 | C=C(F)C(=O)N1CC=C(c2cccnc2Nc2ccc(C(F)(F)F)nc2)CC1 [Example 146, 2-fluoro-1-(2-((6-(trifluoromethyl)pyridin-3-yl)amino)-3′,6′-dihydro-[3,4′-bipyridin]-1′(2′H)-yl)prop-2-en-1-one]
0.341 | 7.18 | C=C(F)C(=O)N1CC=C(c2cccnc2Nc2ccc(OC(F)(F)F)nc2)CC1 [Example 148, 2-fluoro-1-(2-((6-(trifluoromethoxy)pyridin-3-yl)amino)-3′,6′-dihydro-[3,4′-bipyridin]-1′(2′H)-yl)prop-2-en-1-one]
2.71 | 6.79 | C=CC(=O)N1CCC(c2cccnc2Nc2ccc(C(F)(F)F)nc2)CC1 [Example 149, 1-(4-(2-((6-(trifluoromethyl)pyridin-3-yl)amino)pyridin-3-yl)piperidin-1-yl)prop-2-en-1-one]
39.5 | 5.35 | C=C(F)C(=O)N1CCC(c2cccnc2Nc2ccc(C(F)(F)F)nc2)CC1 [Example 150, 2-fluoro-1-(4-(2-((6-(trifluoromethyl)pyridin-3-yl)amino)pyridin-3-yl)piperidin-1-yl)prop-2-en-1-one]
1.05 | 6.73 | C=CC(=O)N1CCC(c2cccnc2Nc2ccc(OC(F)(F)F)nc2)CC1 [Example 151, 1-(4-(2-((6-(trifluoromethoxy)pyridin-3-yl)amino)pyridin-3-yl)piperidin-1-yl)prop-2-en-1-one]
22.2 | 4.87 | C=C(F)C(=O)N1CCC(c2cccnc2Nc2ccc(OC(F)(F)F)nc2)CC1 [Example 152, 2-fluoro-1-(4-(2-((6-(trifluoromethoxy)pyridin-3-yl)amino)pyridin-3-yl)piperidin-1-yl)prop-2-en-1-one]
0.083 | 7.86 | C=C(F)C(=O)N1CCC(c2cccnc2Oc2ccc(C(F)(F)F)nc2)CC1 [Example 156, 2-fluoro-1-(4-(2-((6-(trifluoromethyl)pyridin-3-yl)oxy)pyridin-3-yl)piperidin-1-yl)prop-2-en-1-one]
0.027 | 8.41 | C=C(F)C(=O)N1CC=C(c2cccnc2Oc2cnc(C(F)(F)F)nc2)CC1 [Example 158, 2-fluoro-1-(2-((2-(trifluoromethyl)pyrimidin-5-yl)oxy)-3′,6′-dihydro-[3,4′-bipyridin]-1′(2′H)-yl)prop-2-en-1-one]
2.94 | 5.78 | C=C(F)C(=O)N1CCC(c2cccnc2Oc2cnc(C(F)(F)F)nc2)CC1 [Example 160, 2-fluoro-1-(4-(2-((2-(trifluoromethyl)pyrimidin-5-yl)oxy)pyridin-3-yl)piperidin-1-yl)prop-2-en-1-one]
> 20 | 5.76 | C=CC(=O)N1CCN(c2ncccc2C(=O)N2CCC(F)(F)CC2)CC1 [Example 161, 1-(4-(3-(4,4-difluoropiperidine-1-carbonyl)pyridin-2-yl)piperazin-1-yl)prop-2-en-1-one]
0.192 | 8.96 | C=CC(=O)N1CCN(c2ccccc2Nc2ccc(C(F)(F)F)cc2)CC1 [Example 162, 1-(4-(2-((4-(trifluoromethyl)phenyl)amino)phenyl)piperazin-1-yl)prop-2-en-1-one]
5 | 5.00 | C=CC(=O)N1CCC(n2ccc(C(=O)c3ccc(C(F)(F)F)cc3)n2)CC1 [Example 163, 1-(4-(3-(4-(trifluoromethyl)benzoyl)-1H-pyrazol-1-yl)piperidin-1-yl)prop-2-en-1-one]
5 | 7.70 | C=CC(=O)N1CCC(n2nc(C(=O)c3ccc(C(F)(F)F)cc3)cc2C)CC1 [Example 165, 1-(4-(5-methyl-3-(4-(trifluoromethyl)benzoyl)-1H-pyrazol-1-yl)piperidin-1-yl)prop-2-en-1-one]
> 20 | < 4.70 | C=C(C)C(=O)N1CCN(c2nccnc2Nc2ccc(C(F)(F)F)nc2)CC1 [Example 177, 2-methyl-1-(4-(3-((6-(trifluoromethyl)pyridin-3-yl)amino)pyrazin-2-yl)piperazin-1-yl)prop-2-en-1-one]
0.884 | 8.57 | C/C=C/C(=O)N1CCN(c2nccnc2Nc2ccc(C(F)(F)F)nc2)CC1 [Example 178, (E)-1-(4-(3-((6-(trifluoromethyl)pyridin-3-yl)amino)pyrazin-2-yl)piperazin-1-yl)but-2-en-1-one]
> 20 | < 4.70 | O=C(C(O)CO)N1CCN(c2nccnc2Nc2ccc(C(F)(F)F)cc2)CC1 (centres unmarked) [Example 180, 2,3-dihydroxy-1-(4-(3-((4-(trifluoromethyl)phenyl)amino)pyrazin-2-yl)piperazin-1-yl)propan-1-one]
0.034 | 8.92 | N#C/C=C\C(=O)N1CCN(c2nccnc2Nc2ccc(C(F)(F)F)cc2)CC1 [Example 182, (Z)-4-oxo-4-(4-(3-((4-(trifluoromethyl)phenyl)amino)pyrazin-2-yl)piperazin-1-yl)but-2-enenitrile]
0.422 | 7.47 | N#C/C=C/C(=O)N1CCN(c2nccnc2Nc2ccc(C(F)(F)F)nc2)CC1 [Example 183, (E)-4-oxo-4-(4-(3-((6-(trifluoromethyl)pyridin-3-yl)amino)pyrazin-2-yl)piperazin-1-yl)but-2-enenitrile]
1.45 | 6.79 | N#C/C=C\C(=O)N1CCN(c2nccnc2Nc2ccc(C(F)(F)F)nc2)CC1 [Example 184, (Z)-4-oxo-4-(4-(3-((6-(trifluoromethyl)pyridin-3-yl)amino)pyrazin-2-yl)piperazin-1-yl)but-2-enenitrile]
> 20 | < 4.70 | CN(C#N)C(=O)N1CCN(c2nccnc2Nc2ccc(C(F)(F)F)cc2)CC1 [Example 185, N-cyano-N-methyl-4-(3-((4-(trifluoromethyl)phenyl)amino)pyrazin-2-yl)piperazine-1-carboxamide]
> 20 | < 4.70 | C=C(CO)C(=O)N1CCN(c2nccnc2Nc2ccc(C(F)(F)F)cc2)CC1 [Example 186, 2-(hydroxymethyl)-1-(4-(3-((4-(trifluoromethyl)phenyl)amino)pyrazin-2-yl)piperazin-1-yl)prop-2-en-1-one]
7.41 | 4.44 | C=C(COC(C)=O)C(=O)N1CCN(c2nccnc2Nc2ccc(C(F)(F)F)cc2)CC1 [Example 187, 2-(4-(3-((4-(trifluoromethyl)phenyl)amino)pyrazin-2-yl)piperazine-1-carbonyl)allyl acetate]
